Source: patent US20250017886A1, “FORMULATIONS AND METHODS FOR INCREASING CREATININE LEVELS IN PLASMA, EXTRACELLULAR FLUID AND/OR INTRACELLULAR COMPARTMENTS” (Vireo Systems, Inc., priority 2023, published 2025)
Converted amounts (≈) assume the structure as drawn. “Also recorded” adds a separate entry of the source. Where a name gives a salt, the structure may show the parent alone.

Tests used:
[1] = Saturated aqueous solubility determination (HPLC); assay type: physicochemical; details: for Ratio (relative to CM): solubility relative to creatine monohydrate; for solubility at 1.5 h: thermodynamic from solid, deionized water, 25° C.
Description: After 1.5 hour, the saturated solutions were vortexed and 2-ml aliquots removed and centrifuged in microcentrifuge tubes at 11,000 rpm for 5 min. Concentrations were analyzed by HPLC by diluting 500 μL of supernatant with mobile phase (500 μL). The mean±standard deviation of the saturation solubility for each antiviral therapeutic compound is calculated from the corresponding standard curves.

[2] = target: T1, COX2 (Homo sapiens, UniProt P35354); experiment: COX activity, COX2; assay type: biochemical
T1 sequence (P35354 18-604): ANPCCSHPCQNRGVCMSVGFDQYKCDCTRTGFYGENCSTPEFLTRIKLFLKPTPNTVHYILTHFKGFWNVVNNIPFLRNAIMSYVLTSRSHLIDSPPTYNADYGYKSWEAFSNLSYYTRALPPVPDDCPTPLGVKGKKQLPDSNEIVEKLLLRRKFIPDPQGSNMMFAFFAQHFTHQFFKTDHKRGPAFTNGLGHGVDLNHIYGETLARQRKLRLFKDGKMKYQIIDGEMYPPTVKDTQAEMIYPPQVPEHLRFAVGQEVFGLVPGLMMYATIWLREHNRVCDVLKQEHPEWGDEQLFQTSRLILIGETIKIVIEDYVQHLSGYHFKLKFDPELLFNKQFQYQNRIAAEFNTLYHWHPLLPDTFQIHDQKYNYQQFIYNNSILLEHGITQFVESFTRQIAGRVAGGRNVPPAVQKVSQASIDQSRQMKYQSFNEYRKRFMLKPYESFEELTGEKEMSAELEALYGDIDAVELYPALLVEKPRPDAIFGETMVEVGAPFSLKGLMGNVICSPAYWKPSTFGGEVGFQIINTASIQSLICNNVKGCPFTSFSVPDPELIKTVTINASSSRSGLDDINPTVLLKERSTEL
Description: (§1) The effects of the creatinine pronutrient on PGE2 release was not due to the inhibition of prostaglandin synthesis through cyclooxygenase (COX) as production of prostaglandins by either COX1 or COX2 was unaffected by CEE.

[3] = tested on: hCMEC/d3 (human brain endothelial cells); experiment: Bradykinin-induced permeability in microfluidic BBB culture model; assay type: cell-based; details: 1 mM CEE pretreatment 1-hour
Description: In an effort to determine the impact/effectiveness of creatinine pronutrient formulations made in accordance with the present disclosure, studies examined bradykinin-induced effects on endothelial permeability using a microfluidic blood-brain barrier (BBB) culture model consisting of hCMEC/d3 (human brain endothelial cells) grown on Mimeta microfluidic plates. More specifically, permeability studies were performed using the microfluidic BBB culture model under control conditions and following exposure to a low dose (10 nM) or high dose (10 μM) of bradykinin in either the presence or absence of creatine ethyl ester hydrochloride (CEE) as the creatinine pronutrient.
hCMEC/d3 cells in Mimeta microfluidic plate were pretreated for 1 hour with media or media+1 mM CEE. Thereafter, the cells were treated with a low concentration (10 nM) or high concentration (10 μM) of bradykinin. The permeability of a fluorescent dye (IRdye 800) was assessed after 30 minutes.

[4] = tested on: hBMEC/d3 cells; experiment: Bradykinin-induced prostaglandin E2 release (PGE2 ELISA); assay type: cell-based; details: for inhibition of prostaglandin (PGE2) release: 1.0 mM, 1-hour preincubation, 10 μM bradykinin, at 6 and 24 hours, compared with 10 μM HOE 140
Description: In an effort to determine the impact/effectiveness of creatinine pronutrient formulations made in accordance with the present disclosure on decreasing prostaglandin release over a 24-hour period due to bradykinin exposure, hBMEC/d3 cells were pre-treated with a creatinine pronutrient of the present disclosure and then exposed to 10 μM bradykinin. More specifically, hBMEC/d3 cells were grown on T25 flasks to confluency. Media was removed and exchanged with endothelial cell media containing 0.1% BSA and (1) 1.0 mM CEE, (2) 1.0 mM creatine t-butyl ester hydrochloride (CtB), or (3) 10 μM HOE 140 (a known BR2 receptor antagonist). After a 1-hour incubation, bradykinin (10 μM) was added and samples of media removed and assayed for prostaglandin E2 (PGE2) at 3, 6 and 24 hours. The amount of PGE 2 secreted into the media by the cells was determined using a PGE2 ELISA and normalized to cell lysate protein content.

[5] = target: COX1 (Homo sapiens, UniProt P23219); experiment: COX activity, COX1; assay type: biochemical
Description: as §1

[6] = Rat PK study, plasma levels after creatinine pronutrient dosing; assay type: in vivo, sprague-dawley male rats
Description: A rat PK study was performed to determine resulting plasma creatinine levels following creatinine pronutrient dosing. […] Levels of creatine, creatinine pronutrient, and creatinine in the plasma were measured over time. In this study, the specific creatinine pronutrient used was creatine ethyl ester hydrochloride. Blood samples were collected over a 4-hour period via femoral artery catheter. Muscle and brain tissue were collected at the end of the study. Liquid chromatography-mass spectrometry (LCMS) was used for analysis of samples. The area under the plasma concentration curve following oral dosing was compared to that obtained following IV administration. The creatinine pronutrient formulation data in Table 4 was generated from the creatinine data gathered in Example 4 using allometric dosing to determine the human dose equivalent for the labeled creatinine pronutrient (for a 70 kg human). In order to assess the relative bioavailability of the formulations (and to correct for the slightly different doses administered with various forms due to the different molecular weights), the AUC plasma uptake values observed for creatinine and the creatinine pronutrient formulation were entered into the following equation to produce a ratio: […]

[7] = cited from earlier work
[8] = Human single oral dose pharmacokinetics of creatinine (Ostojic et al. 2019); assay type: in vivo; details: plasma, oral 3 grams creatinine given with 3 grams creatine nitrate, computed from literature data, read-out: AUC(0-120m) (converted)
Description: The creatinine data in Table 4 was generated from the data provided in Ostojic et al., Food Sci Nutr. 2019. […] In order to assess the relative bioavailability of the formulations (and to correct for the slightly different doses administered with various forms due to the different molecular weights), the AUC plasma uptake values observed for creatinine and the creatinine pronutrient formulation were entered into the following equation to produce a ratio: […]

[9] = human, oral 3 grams creatinine given with 3 grams creatine nitrate; cited from earlier work
[10] = tested on: hCMEC/d3 microfluidic culture model; experiment: Permeability of microfluidic BBB model treated with cancer patient plasma; assay type: cell-based, human; details: for permeability coefficient: 1 mM CtB
[11] = tested on: human brain endothelial cells (HCMEC/d3); experiment: Creatinine uptake in HCMEC/d3 cells; assay type: cell-based; details: HCMEC/d3, 1 mM, 3-hour period
Description: In an effort to determine the impact/effectiveness of a formulation made in accordance with the present disclosure on increasing creatinine delivery, different cell types were exposed to several of the formulations in Example 1. More specifically, cellular uptake studies were performed for formulations including CEE and CtB from Example 1. […] In other words, it remains unknown where there is a transporter involved in the accumulation of creatinine. Without being bound by any particular theory, if a transporter is involved for accumulation of creatinine, it may be the organic cation transporter 2 (OCT2) found in kidney tubule epithelial cells. The various cell lines discussed above were first exposed to 1 mM of creatinine (CRN), CEE, and CtB at 37° C. for a 3-hour incubation period at a pH 7.4. After incubation, the assay buffer was collected. The cells were then washed rapidly three times with ice-cold phosphate-buffered saline solution. […] More specifically, the creatinine content in cell lysates was determined using QuantichromTM Creatinine Assay Kit (DICT 500) from Bioassay Systems (Hayward, CA). The assay quantitatively measures creatinine without any pretreatment through an optimized Jaffe method. […] The intensity of the red, measured at 510 nm, is directly proportional to the concentration of creatinine in the sample. […]

[12] = tested on: human colon epithelial (Caco-2); experiment: Creatinine uptake in Caco-2 cells; assay type: cell-based; details: Caco-2, 1 mM, 3-hour period; hydrochloride
[13] = rat, after 10 or 70 mg/kg oral or 10 mg/kg IV creatinine pronutrient

COX1, sequence (P23219 24-599): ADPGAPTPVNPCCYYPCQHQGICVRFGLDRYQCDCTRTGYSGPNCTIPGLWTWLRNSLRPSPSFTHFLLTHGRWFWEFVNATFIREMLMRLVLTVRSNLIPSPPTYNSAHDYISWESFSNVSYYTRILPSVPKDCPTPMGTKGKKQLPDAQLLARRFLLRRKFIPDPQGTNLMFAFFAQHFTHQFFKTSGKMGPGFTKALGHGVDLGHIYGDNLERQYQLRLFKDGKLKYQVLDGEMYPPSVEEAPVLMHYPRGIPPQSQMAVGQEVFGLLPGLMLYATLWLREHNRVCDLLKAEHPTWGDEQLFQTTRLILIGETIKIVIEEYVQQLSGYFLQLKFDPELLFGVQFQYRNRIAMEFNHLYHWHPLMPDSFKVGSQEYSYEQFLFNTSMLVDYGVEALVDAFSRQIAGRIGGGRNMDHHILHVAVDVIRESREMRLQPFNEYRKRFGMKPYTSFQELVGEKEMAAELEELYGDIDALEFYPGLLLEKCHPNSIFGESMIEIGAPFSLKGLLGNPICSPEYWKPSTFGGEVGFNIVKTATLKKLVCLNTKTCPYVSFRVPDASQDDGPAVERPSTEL

CC(C)CCOC(=O)CN(C)C(=N)N [Creatine Isopentyl Ester HCl, creatine isopentyl ester hydrochloride]
Ratio (relative to CM) [1]: >29
solubility at 1.5 h [1]: > 600 mg/mL

CCOC(=O)CNC(=O)CN(C)C(=N)N [Creatine Glycinamide Ethyl Ester HCl, creatine glycinamide ethyl ester]
Ratio (relative to CM) [1]: >29
solubility at 1.5 h [1]: > 600 mg/mL

CCOC(=O)CN(C)C(=N)N [CEE, creatine ethyl ester hydrochloride]
production of prostaglandins by COX2 [2]: unaffected
permeability coefficient of IRdye 800 ([3]; then 10 nM bradykinin (1.05×10^−8 without CEE)): 0.00343 ×10⁻⁶ cm/s
permeability coefficient of IRdye 800 ([3]; then 10 μM bradykinin (2.90×10^−8 without CEE)): 0.0142 ×10⁻⁶ cm/s
PGE release in response to bradykinin [4]: prevents PGE release
inhibition of prostaglandin (PGE2) release [4]: as effective at inhibiting prostaglandin release as the known BR2 receptor antagonist HOE 140
Ratio (relative to CM) [1]: >9
solubility at 1.5 h [1]: 205 mg/mL
production of prostaglandins by COX1 [5]: unaffected
creatinine delivered to the plasma as compared to creatinine ([6]; high and low doses): twice as much
creatine in plasma samples [6, 13]: no detectable amount
creatinine pronutrient in plasma samples [6, 13]: Small but measurable amounts
creatinine in plasma samples ([6]; rat, after creatinine pronutrient dosing, especially at the high dose): Substantial levels

CCOC(=O)CCNC(=N)N [Ethyl (α-guanido-methyl) ethonoate, ethyl (α-guanido-methyl) ethanoate]
Ratio (relative to CM) [1]: >8
solubility at 1.5 h [1]: 178 ± 7.2 mg/mL (≈ 1120 mM)

CN(CC(=O)OC1CCCCC1)C(=N)N [Creatine Cyclohexyl Ester Tosylate, creatine cyclohexyl ester]
Ratio (relative to CM) [1]: <1.0
solubility at 1.5 h [1]: 15 to 20 mg/mL

CN1CC(=O)NC1=N [Creatinine, creatinine]
solubility [7]: 23 mg/mL (≈ 203 mM)
AUC [8]: 4600 ng·h/mL
Cmax (plasma creatinine) [9]: 15300 ng/mL
Cmin (plasma creatinine) [9]: 11300 ng/mL
Tmax [9]: 1 h

CN(CC(=O)OC(C)(C)C)C(=N)N.Cl [CtB, creatine tert-butyl ester hydrochloride]
inhibition of prostaglandin (PGE2) release [4]: as effective at inhibiting prostaglandin release as the known BR2 receptor antagonist HOE 140
permeability coefficient ([10]; breast cancer patient CF80 6 month plasma, 24-hour treatment (2.78×10^−8 without CtB)): 0.00963 ×10⁻⁶ cm/s
permeability coefficient ([10]; breast cancer patient CF80 baseline plasma, 24-hour treatment (1.06×10^−8 without CtB)): 0.00297 ×10⁻⁶ cm/s
permeability increases produced by plasma samples from cancer patients ([10]; addition of 1 mM): attenuated
Ratio (relative to CM) [1]: ≥18
solubility at 1.5 h [1]: 389 mg/mL
creatinine accumulation compared with 1 mM creatinine [11]: greater
creatinine accumulation compared with 1 mM creatinine [12]: greater; also recorded: almost double
